We go through 16 molecules from patent US11987648B2, “Cyclohexapeptides as selective somatostatin SST5 receptor agonists” (Heptares Therapeutics Limited, priority 2018, dated 2024).

The target of one assay is SST2 (Homo sapiens, UniProt P30874). As to the kind of experiment: Hit Hunter cAMP XS+ assay, SST2 activation via Gi (reduction of forskolin-stimulated cAMP). The class given is cell-based. The following applies: for Emax: read-out: SST2 (EMax); for EC50: reduction of forskolin-stimulated cAMP, 4-parameter logistic fit, read-out: SST2 pEC50 (converted). As for the experimental part: (§1) A Hit Hunter® cAMP XS+ assay was used to monitor activation of the SST2 and SST5 via the Gi G protein. Cells were pre-stimulated with forskolin to elicit a cAMP response and the potency and efficacy of somatostatin agonists to reduce cAMP was measured. Briefly cells (10,000 cells/well) were incubated (37° C.; 30 min) with compound ([…]) in media (2:1 HBSS/11 mM Hepes: cAMP XS+Ab reagent) in the presence of EC80 forskolin ([…] and 15 μM SST5). Signal was detected through incubation with 20 μL cAMP XS+ED/CL lysis cocktail ([…]; RT) followed by incubation with […] cAMP XS+EA reagent (180 min; RT). Microplates were read with a PerkinElmer Envision™ instrument for chemiluminescent signal detection.
Chain of SST2 (P30874 whole entry): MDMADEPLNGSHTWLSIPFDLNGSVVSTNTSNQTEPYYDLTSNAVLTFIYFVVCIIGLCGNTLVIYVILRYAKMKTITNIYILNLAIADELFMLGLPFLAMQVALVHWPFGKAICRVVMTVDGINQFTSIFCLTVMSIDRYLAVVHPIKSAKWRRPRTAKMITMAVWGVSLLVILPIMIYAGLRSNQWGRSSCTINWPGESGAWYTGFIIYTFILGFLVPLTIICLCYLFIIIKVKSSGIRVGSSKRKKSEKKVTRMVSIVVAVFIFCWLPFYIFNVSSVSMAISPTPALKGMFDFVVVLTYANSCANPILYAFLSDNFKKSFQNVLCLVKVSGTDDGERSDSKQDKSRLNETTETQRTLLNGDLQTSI

The target of a further assay is SST5 (Homo sapiens, UniProt P35346). As to the kind of experiment: Hit Hunter cAMP XS+ assay, SST5 activation via Gi (reduction of forskolin-stimulated cAMP). The class given is cell-based. The following applies: for Emax: read-out: SST5 (EMax); for EC50: reduction of forskolin-stimulated cAMP, 4-parameter logistic fit, read-out: SST5 pEC50 (converted); for SST5/2 Selectivity: selectivity for SST5 over SST2. As for the experimental part: as §1
Chain of SST5 (P35346 whole entry): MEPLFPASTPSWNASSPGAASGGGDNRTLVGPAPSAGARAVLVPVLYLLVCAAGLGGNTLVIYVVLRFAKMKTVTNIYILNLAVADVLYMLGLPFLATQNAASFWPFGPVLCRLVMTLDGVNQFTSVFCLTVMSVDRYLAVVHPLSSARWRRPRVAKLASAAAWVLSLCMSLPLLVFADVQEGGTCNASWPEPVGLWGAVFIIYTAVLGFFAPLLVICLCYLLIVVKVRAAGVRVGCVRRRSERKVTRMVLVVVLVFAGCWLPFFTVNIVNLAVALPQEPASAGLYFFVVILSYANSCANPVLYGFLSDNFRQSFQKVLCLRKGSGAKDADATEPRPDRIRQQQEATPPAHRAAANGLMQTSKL

*1 amine or outer side, *2 acyl side, *3 side chain or, on linkers, in order; H or OH if unused. Where a SMILES comes first, the peptide text is derived from it. Side-chain parts run from the residue outwards. [ ]: non-standard residue; d: D form. The star is where a group is joined. Ala(piperidin-4-yl) = O=C([C@H](CC1CCN([*:3])CC1)N[*:1])[*:2]; dTrp(5-OMe) = COc1ccc2[nH]cc(C[C@@H](N)C(=O)O)c2c1; Ala(piperazin-1-yl) = N[C@@H](CN1CCNCC1)C(=O)O; X5 = CN([C@@H](CC1CCNCC1)C(=O)[*:2])[*:1]; Phe(3-Cl) = N[C@@H](Cc1cccc(Cl)c1)C(=O)O; Phe(3-OMe) = COc1cccc(C[C@H](N)C(=O)O)c1; Morpholine(3S-CO) = O=C(O)[C@@H]1COCCN1; Pro(4,4-F2) = O=C(O)[C@@H]1CC(F)(F)CN1; Ethylenediamine = C(CN[*:2])N[*:1]; d(hPhe) = N[C@H](CCc1ccccc1)C(=O)O; Hyp = O=C(O)[C@@H]1C[C@@H](O)CN1; Pip(4-aza) = O=C(O)[C@@H]1CNCCN1; hPhe = N[C@@H](CCc1ccccc1)C(=O)O; 3Pal = N[C@@H](Cc1cccnc1)C(=O)O; Cyclohexylmethyl = C1CCC(C*)CC1; Tic = O=C(O)[C@@H]1Cc2ccccc2CN1; Benzyl(4-Cl) = Clc1ccc(C*)cc1; Phg = N[C@H](C(=O)O)c1ccccc1; Pip = O=C(O)[C@@H]1CCCCN1; X6 = Clc1cccc(Cl)c1C*; CO = O=C([*:1])[*:2]; Bn = c1ccc(C*)cc1; X1 = C1CCC(C*)C1 Where only a bound is given, the exact number is not on record here.

As for `O=C1N[C@@H](Cc2ccc(OCc3ccccc3)cc2)C(=O)N2Cc3ccccc3C[C@H]2C(=O)N2CCOC[C@H]2C(=O)N[C@H](CCc2ccccc2)C(=O)N[C@H](Cc2c[nH]c3ccccc23)C(=O)N[C@H]1CN1CCNCC1` [Example 61] (cyclo([Tic][Morpholine(3S-CO)][d(hPhe)][dW][Ala(piperazin-1-yl)]Y(Bn))), at SST2, the Emax is 23.4% and the EC50 is over 10000 nM. Further, at SST5, the Emax came out at 103%, the EC50 was 31.6 nM and the “SST5/2 Selectivity” value is on record as 291.4.

Turning to `NCCNC(=O)O[C@@H]1C[C@H]2C(=O)N[C@@H](c3ccccc3)C(=O)N[C@H](Cc3c[nH]c4ccccc34)C(=O)N[C@@H](CN3CCNCC3)C(=O)N[C@@H](Cc3ccc(OCC4CCCCC4)cc3)C(=O)N[C@@H](Cc3ccccc3)C(=O)N2C1` [Example 27] (cyclo(F[Hyp]([CO-Ethylenediamine])[Phg][dW][Ala(piperazin-1-yl)]Y(Cyclohexylmethyl))), at SST2, the Emax is 90.7% and the EC50 is 398 nM. At SST5, the maximal response (Emax) is 99.4%, the EC50 is 2.51 nM and the “SST5/2 Selectivity” value came to 159.6.

For the molecule `CN1C(=O)[C@@H](Cc2c[nH]c3ccccc23)NC(=O)[C@@H](CCc2ccccc2)NC(=O)[C@@H]2COCCN2C(=O)[C@@H]2Cc3ccccc3CN2C(=O)[C@H](Cc2ccc(OCc3ccccc3)cc2)NC(=O)[C@@H]1CC1CCNCC1` [Example 32] (cyclo([Tic][Morpholine(3S-CO)][d(hPhe)][dW][X5]Y(Bn))), at SST2, the Emax worked out at 98.8% and the EC50 is 100 nM. For the same molecule, at SST5, the Emax is 99.9%, the EC50 is 1.26 nM and the “SST5/2 Selectivity” value was 66.8.

Regarding `NCCNC(=O)O[C@@H]1C[C@H]2C(=O)N[C@@H](CCc3ccccc3)C(=O)N[C@H](Cc3c[nH]c4ccccc34)C(=O)N[C@@H](CC3CCNCC3)C(=O)N[C@@H](Cc3ccc(OCC4CCCC4)cc3)C(=O)N[C@@H](Cc3cccnc3)C(=O)N2C1` [Example 49] (cyclo([3Pal][Hyp]([CO-Ethylenediamine])[hPhe][dW][Ala(piperidin-4-yl)]Y(X1))), at SST2, the Emax amounted to 98.9% and the EC50 was 501 nM. In addition, at SST5, the Emax stood at 103%, the EC50 is 3.16 nM and the “SST5/2 Selectivity” value is recorded as 143.3.

As to `NCCNC(=O)O[C@@H]1C[C@H]2C(=O)N[C@@H](CCc3ccccc3)C(=O)N[C@H](Cc3c[nH]c4ccccc34)C(=O)N[C@@H](CC3CCNCC3)C(=O)N[C@@H](Cc3ccc(OCc4c(Cl)cccc4Cl)cc3)C(=O)N[C@@H](Cc3cccnc3)C(=O)N2C1` [Example 47] (cyclo([3Pal][Hyp]([CO-Ethylenediamine])[hPhe][dW][Ala(piperidin-4-yl)]Y(X6))), at SST2, the Emax is 100% and the EC50 was 200 nM. Moreover, on SST5, the maximal effect (Emax) was 108%, the EC50 was 0.794 nM and the “SST5/2 Selectivity” value was found to be 226.4.

As to `NCCNC(=O)O[C@@H]1C[C@H]2C(=O)N[C@@H](CCc3ccccc3)C(=O)N[C@H](Cc3c[nH]c4ccccc34)C(=O)N[C@@H](CC3CCNCC3)C(=O)N[C@@H](Cc3ccc(OCc4ccccc4)cc3)C(=O)N[C@@H](Cc3ccccc3)C(=O)N2C1` [Example 28] (cyclo(F[Hyp]([CO-Ethylenediamine])[hPhe][dW][Ala(piperidin-4-yl)]Y(Bn))), at SST2, the maximal effect (Emax) was determined as 99.6% and the EC50 is 7.94 nM. For the same molecule, at SST5, the maximal response (Emax) was found to be 100%, the EC50 was 0.0794 nM and the “SST5/2 Selectivity” value is listed as 101.0.

Take `NCCNC(=O)O[C@@H]1C[C@H]2C(=O)N[C@@H](CCc3ccccc3)C(=O)N[C@@H](Cc3c[nH]c4ccccc34)C(=O)N[C@@H](CN3CCNCC3)C(=O)N[C@@H](Cc3ccc(OCc4ccccc4)cc3)C(=O)N3Cc4ccccc4C[C@H]3C(=O)N2C1` [Example 36] (cyclo([Hyp]([CO-Ethylenediamine])[hPhe]W[Ala(piperazin-1-yl)]Y(Bn)[Tic])): on SST2, the Emax was found to be 63.4% and the EC50 is 501 nM. Further, on SST5, the Emax came out at 102%, the EC50 was 1.26 nM and the “SST5/2 Selectivity” value was 384.3.

For the molecule `NCCNC(=O)O[C@@H]1C[C@H]2C(=O)N[C@@H](CCc3ccccc3)C(=O)N[C@H](Cc3c[nH]c4ccccc34)C(=O)N[C@@H](CN3CCNCC3)C(=O)N[C@@H](Cc3ccc(OCc4ccccc4)cc3)C(=O)N3CC(F)(F)C[C@H]3C(=O)N2C1` [Example 70] (cyclo([Hyp]([CO-Ethylenediamine])[hPhe][dW][Ala(piperazin-1-yl)]Y(Bn)[Pro(4,4-F2)])), on SST2, the Emax came out at 77.9% and the EC50 was over 10000 nM. On SST5, the maximal response (Emax) is 102%, the EC50 was 5.01 nM and the “SST5/2 Selectivity” value is on record as 1815.8.

For `NCCNC(=O)O[C@@H]1C[C@H]2C(=O)N[C@@H](CCc3ccccc3)C(=O)N[C@H](Cc3c[nH]c4ccccc34)C(=O)N[C@@H](CC3CCNCC3)C(=O)N[C@@H](Cc3ccc(OCc4ccc(Cl)cc4)cc3)C(=O)N[C@@H](Cc3cccnc3)C(=O)N2C1` [Example 40] (cyclo([3Pal][Hyp]([CO-Ethylenediamine])[hPhe][dW][Ala(piperidin-4-yl)]Y(Benzyl(4-Cl)))), at SST2, the Emax is 91.2% and the EC50 was 316 nM. In addition, on SST5, the maximum response (Emax) was 106%, the EC50 was 2.51 nM and the “SST5/2 Selectivity” value turned out to be 126.6.

Regarding `COc1cccc(C[C@@H]2NC(=O)[C@H](Cc3ccc(OCc4ccccc4)cc3)NC(=O)[C@H](CC3CCNCC3)NC(=O)[C@@H](Cc3c[nH]c4ccccc34)NC(=O)[C@H](c3ccccc3)NC(=O)[C@@H]3C[C@@H](OC(=O)NCCN)CN3C2=O)c1` [Example 12] (cyclo([Hyp]([CO-Ethylenediamine])[Phg][dW][Ala(piperidin-4-yl)]Y(Bn)[Phe(3-OMe)])), on SST2, the maximal effect (Emax) is 97.6% and the EC50 was 20 nM. On SST5, the Emax came out at 98.1%, the EC50 is 0.794 nM and the “SST5/2 Selectivity” value came out at 26.1.

Turning to `NCCNC(=O)O[C@@H]1C[C@H]2C(=O)N[C@@H](CCc3ccccc3)C(=O)N[C@H](Cc3c[nH]c4ccccc34)C(=O)N[C@@H](CN3CCNCC3)C(=O)N[C@@H](Cc3ccc(OCc4ccccc4)cc3)C(=O)N3CCCC[C@H]3C(=O)N2C1` [Example 69] (cyclo([Hyp]([CO-Ethylenediamine])[hPhe][dW][Ala(piperazin-1-yl)]Y(Bn)[Pip])), on SST2, the Emax amounted to 69% and the EC50 was over 10000 nM. For the same molecule, at SST5, the maximum response (Emax) was 103%, the EC50 is 79.4 nM and the “SST5/2 Selectivity” value came out at 124.3.

As for `NCCNC(=O)O[C@@H]1C[C@H]2C(=O)N[C@H](CCc3ccccc3)C(=O)N[C@@H](Cc3c[nH]c4ccccc34)C(=O)N[C@@H](CN3CCNCC3)C(=O)N[C@@H](Cc3ccc(OCc4ccccc4)cc3)C(=O)N3Cc4ccccc4C[C@H]3C(=O)N2C1` [Example 35] (cyclo([Hyp]([CO-Ethylenediamine])[d(hPhe)]W[Ala(piperazin-1-yl)]Y(Bn)[Tic])), at SST2, the Emax stood at 27.8% and the EC50 is over 10000 nM. In addition, at SST5, the maximal effect (Emax) came out at 107%, the EC50 was 1 nM and the “SST5/2 Selectivity” value worked out at 10046.0.

For the molecule `COc1ccc2[nH]cc(C[C@H]3NC(=O)[C@H](CCc4ccccc4)NC(=O)[C@@H]4C[C@@H](OC(=O)NCCN)CN4C(=O)[C@H](Cc4cccnc4)NC(=O)[C@H](Cc4ccc(OCc5ccccc5)cc4)NC(=O)[C@H](CC4CCNCC4)NC3=O)c2c1` [Example 39] (cyclo([3Pal][Hyp]([CO-Ethylenediamine])[hPhe][dTrp(5-OMe)][Ala(piperidin-4-yl)]Y(Bn))), on SST2, the Emax worked out at 100% and the EC50 was 398 nM. In addition, at SST5, the Emax turned out to be 107%, the EC50 was 0.398 nM and the “SST5/2 Selectivity” value is recorded as 1104.6.

As to `O=C1N[C@@H](Cc2ccc(OCc3ccccc3)cc2)C(=O)N2Cc3ccccc3C[C@H]2C(=O)N2CCNC[C@H]2C(=O)N[C@@H](CCc2ccccc2)C(=O)N[C@H](Cc2c[nH]c3ccccc23)C(=O)N[C@H]1CC1CCNCC1` [Example 73] (cyclo([Tic][Pip(4-aza)][hPhe][dW][Ala(piperidin-4-yl)]Y(Bn))), at SST2, the maximal effect (Emax) is 99.2% and the EC50 was 398 nM. Also, at SST5, the Emax came out at 94.9%, the EC50 was 0.631 nM and the “SST5/2 Selectivity” value was 566.7.

Turning to `NCCNC(=O)O[C@@H]1C[C@H]2C(=O)N[C@@H](CCc3ccccc3)C(=O)N[C@H](Cc3c[nH]c4ccccc34)C(=O)N[C@@H](CC3CCNCC3)C(=O)N[C@@H](Cc3ccc(OCc4ccccc4)cc3)C(=O)N[C@@H](Cc3cccc(Cl)c3)C(=O)N2C1` [Example 41] (cyclo([Hyp]([CO-Ethylenediamine])[hPhe][dW][Ala(piperidin-4-yl)]Y(Bn)[Phe(3-Cl)])), on SST2, the maximal response (Emax) stood at 102% and the EC50 is 7.94 nM. Also, on SST5, the maximum response (Emax) worked out at 104%, the EC50 is 0.158 nM and the “SST5/2 Selectivity” value was 51.0.

For `C[C@@H](O)[C@@H]1NC(=O)[C@H](CCCCN)NC(=O)[C@@H](Cc2c[nH]c3ccccc23)NC(=O)[C@H](Cc2ccccc2)NC(=O)[C@@H](NC(=O)[C@H](N)Cc2ccccc2)CSSC[C@@H](C(=O)N[C@H](CO)[C@@H](C)O)NC1=O` [Octreotide], the Emax on SST2 stood at 98.5%.

By Emax is commonly meant the greatest response seen or fitted, relative to the assay's reference.
